One test concerns the target human MCH1 receptor (Homo sapiens, UniProt Q99705). As to the kind of experiment: Radioligand competition binding with [3H]Compound 10, membranes of A293 cells. As to conditions: Table 3, A293 cell membranes, [3H]Compound 10 as radioligand, read-out: hMCH1 * Ki. As for the experimental part: (§1) For binding assays, pellets of transfected cells are suspended in ice-cold buffer (20 mM Tris.HCl, 5 mM EDTA, pH 7.4) and homogenized by sonication for 7 sec. The cell lysates are centrifuged at 200×g for 5 min at 4° C. The supernatants are then centrifuged at 40,000×g for 20 min at 4° C. The resulting pellets are washed once in the homogenization buffer and suspended in binding buffer (see methods for radioligand binding). Protein concentrations are determined by the method of Bradford (1976) using bovine serum albumin as the standard. Binding assays are usually performed immediately, however it is possible to prepare membranes in batch and store frozen in liquid nitrogen for future use.
Radioligand binding assays for the MCH1 receptor were carried out using plasmid pEXJ.HR-TL231 (ATCC Accession No. 203197). Plasmid pEXJ.HR-TL231 comprises the regulatory elements necessary for expression of DNA in a mammalian cell operatively linked to DNA encoding the human MCH1 receptor so as to permit expression thereof. Plasmid pEXJ.HR-TL231 was deposited on Sep. 17, 1998, with the American Type Culture Collection (ATCC), 12301 Parklawn Drive, Rockville, Md. 20852, U.S.A. under the provisions of the Budapest Treaty for the International Recognition of the Deposit of Microorganisms for the Purposes of Patent Procedure and was accorded ATCC Accession No. 203197. […]
On the technique in general: Loss of bound radioactivity is the signal in a displacement assay; it reports binding, not function.

The target in a further test is T1, human GALR2 (Homo sapiens, UniProt O43603).
T1 construct: expressed in transfected cells
T1 sequence (O43603 1-387): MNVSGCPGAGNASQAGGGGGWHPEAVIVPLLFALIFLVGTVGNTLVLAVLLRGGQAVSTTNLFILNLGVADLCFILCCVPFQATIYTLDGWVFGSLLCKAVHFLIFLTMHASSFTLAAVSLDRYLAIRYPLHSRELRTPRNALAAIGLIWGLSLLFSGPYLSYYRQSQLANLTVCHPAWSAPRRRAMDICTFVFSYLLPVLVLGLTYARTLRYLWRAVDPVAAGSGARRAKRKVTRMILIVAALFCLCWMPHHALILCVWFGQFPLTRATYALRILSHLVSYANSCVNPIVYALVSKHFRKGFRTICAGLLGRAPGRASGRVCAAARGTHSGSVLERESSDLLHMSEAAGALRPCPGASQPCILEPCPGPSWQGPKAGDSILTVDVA
Briefly: Radioligand binding assay, cloned receptor. As to conditions: read-out: hGALR2 Ki. As for the experimental part: as §1
(§2) The methods to obtain the cDNA of the human NPY1, NPY5, GALR1, GALR2, and GALR3 and rat 5-HT2C receptors, express said receptors in heterologous systems, and carry out assays to determine binding affinity are described in the following publications and above: human NPY1 (Larhammar et al., 1992), human NPY5 (U.S. Pat. No. 5,602,024, the disclosure of which is hereby incorporated by reference in its entirety into this application), human Gal1 (Habert-Ortoli et al., 1994), human Gal2 (Smith et al., 1997), human Gal3 (Smith et al., 1998), and rat 5-HT2C (Julius et al., 1988).

A further test addresses T2, rat 5-HT2C receptor (Rattus norvegicus, UniProt P08909).
T2 construct: expressed in transfected cells
T2 sequence (P08909 33-460): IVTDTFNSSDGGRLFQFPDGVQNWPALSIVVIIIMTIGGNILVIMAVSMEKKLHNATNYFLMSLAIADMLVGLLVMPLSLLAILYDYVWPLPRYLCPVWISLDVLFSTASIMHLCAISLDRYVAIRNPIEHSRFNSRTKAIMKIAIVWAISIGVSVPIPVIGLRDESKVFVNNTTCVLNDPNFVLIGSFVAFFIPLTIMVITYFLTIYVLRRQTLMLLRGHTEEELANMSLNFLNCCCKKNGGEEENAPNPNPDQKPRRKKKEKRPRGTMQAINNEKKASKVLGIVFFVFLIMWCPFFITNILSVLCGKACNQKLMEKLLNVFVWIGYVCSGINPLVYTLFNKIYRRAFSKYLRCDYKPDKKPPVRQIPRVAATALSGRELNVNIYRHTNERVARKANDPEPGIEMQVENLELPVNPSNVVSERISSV
Briefly: Radioligand binding assay, cloned receptor. As to conditions: read-out: r5HT2C Ki. The procedure: as §1, §2

Data on 1 substance can be found in US6720324B2, “Selective melanin concentrating hormone-1 (MCH1) receptor antagonists and uses thereof” (Synaptic Pharmaceutical Corporation, priority 2000, dated 2004).

Read-outs that look alike come from different tables or passages of the source.

human MCH1 receptor, sequence (Q99705 whole entry): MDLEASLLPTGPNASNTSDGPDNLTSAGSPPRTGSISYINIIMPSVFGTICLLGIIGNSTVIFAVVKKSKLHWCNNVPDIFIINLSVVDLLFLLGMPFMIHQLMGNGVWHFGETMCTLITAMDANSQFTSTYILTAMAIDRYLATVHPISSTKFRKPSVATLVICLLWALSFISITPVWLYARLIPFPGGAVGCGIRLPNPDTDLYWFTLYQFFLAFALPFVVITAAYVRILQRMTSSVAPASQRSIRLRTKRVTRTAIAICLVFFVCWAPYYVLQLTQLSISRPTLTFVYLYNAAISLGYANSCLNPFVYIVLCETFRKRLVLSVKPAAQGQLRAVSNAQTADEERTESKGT

As a reminder, the Ki is the equilibrium dissociation constant of an inhibitor or competing ligand from its target. As to “2-(3,4-DIFLUOROPHENYL)4,5-DIHYDROIMIDAZOLE-1-CARBOXYLIC ACID {3-[4-PHENYL-4-(4-BROMO-5-METHYLTHIOPNEN-2-YL)]PROPYL}-AMIDE [Example 19]”, the Ki at human MCH1 receptor was 0.003 µM; at human GALR2 (Table 2) it was greater than 50 µM; on human GALR2 (Table 3) it was greater than 50 µM; on rat 5-HT2C receptor (Table 2), 11.7 µM; on rat 5-HT2C receptor (Table 3), 11.7 µM.
